Assay results published in patent US20180133211A1, “METHODS AND MATERIALS FOR PROMOTING BONE FORMATION” (Mayo Foundation for Medical Education and Research, priority 2015, published 2018).

Experiments:
MC3T3 cells = assay: Osteogenic differentiation of MC3T3 cells under EZH2 inhibition; assay type: cell-based, mouse; details: 1 μM UNC1999
Method: MC3T3 cells were seeded in 6-well plates in maintenance medium (10,000 cells/cm^2). The following day, maintenance medium was replaced with osteogenic medium (αMEM supplemented with 50 μg/mL ascorbic acid (Sigma) and 4 mM beta glycerol phosphate (Sigma)) containing vehicle or EZH2 inhibitor. Three days later, vehicle or EZH2 inhibitors were added again with osteogenic medium. On day six, EZH2 inhibitor and vehicle were removed, and fresh osteogenic medium added.
Media were changed every three days. RNA was isolated at indicated times. On day 6, cells were fixed in 10% neutral buffered formalin and stained with 5-bromo-4-chloro-3-indolyl-phosphate/nitro blue tetrazolium to monitor the enzymatic activity of alkaline phosphatase (Promega). On day 14 (AMCs) and days 21-25 (MC3T3), cells were fixed in 10% neutral buffered formalin and stained with 2% Alizarin Red to visualize calcium deposition. Absorption of alizarin red stain was normalized to total DNA as measured by Hoechst staining of the nuclei.

[1] = test system: primary mouse osteoclasts; assay: Osteoclastic resorption on dentin slices; assay type: cell-based; details: 3 μM L- or DL-SFN, 14 days
Method: Primary mouse tissues or cells were obtained according to procedures that conform to the regulatory guidelines of the Institutional Animal Care and Use Committee of the Medical University of Vienna. Primary mouse osteoclasts were harvested from 8-week old C57BL/6 mice, which were sacrificed, and bone marrow cells were isolated from tibias and femurs under aseptic conditions and cultured in α-MEM (Biochrom) containing 10% FCS (Biochrom), […] (Sigma-Aldrich) and macrophage colony stimulating factor (MCSF1, 30 ng/mL). After 24 hours, non-adherent cells were seeded onto sterile, 300 μm thick dentin slices (elephant ivory) at 700,000 cells/cm^2 in αMEM supplemented with 10% FBS, 2 mM 1-glutamine, 30 μg/mL gentamycin, 20 ng/mL M-CSF, and 2 ng/mL RANKL (R&D Systems, Minneapolis, Minn., USA). Culture medium was changed twice per week, and cells were cultured for 14 days.
After culturing the primary mouse osteoclasts for 14 days on dentin slices in the presence or absence of 3 μM L- or DL-SFN, substrates were put into water, sonicated for 10 minutes to remove living cells and air-dried. Photographs were obtained by reflected light microscopy (objective 20×) of the entire substrate surface, and resorption trails and pits were analyzed and quantified with standard image analysis software (ImageJ, rsbweb.nih.gov/ij/). […]

[2] = test system: sham operated or ovariectomized (OVX) C57B16/J female mice; assay: In vivo analysis of SFN effects on bone, μCT; design: species or system mouse; details: OVX mice; mitigation of the OVX-dependent decrease of trabecular number
Method: Analysis of SFN on mice was performed using a protocol similar to that described elsewhere (Kong et al., Arthritis Rheum., 62:159-170 (2010)). In the experimental setting herein, eight week old sham operated or ovariectomized (OVX) C57B16/J female mice were purchased from Charles River laboratories. Mice were injected with 7.5 mM DL-SFN (200 μL of SFN at a concentration of 63.8 mg/mL/kg dissolved in ethanol and further diluted in PBS) intraperitoneally every other day for five weeks. Control mice received vehicle alone.
Images from tibias fixed in 4% formaldehyde were acquired in a SkyScan 1174 with a resolution of 6 μm (X-ray voltage 50 kV). Image reconstruction was performed by applying a modified Feldkamp algorithm using the Skyscan Nrecon software. 3D and 2D morphometric parameters were calculated for the trabecular bone (350 consecutive slides, 6 μm thick) starting from 300 μm from the growth plate. Threshold values were applied for segmenting trabecular bone corresponding to bone mineral density values of 0.6/cm^3 calcium hydroxyapatite. 3D parameters were based on analysis of a Marching Cubes type model with a rendered surface. Calculation all of 2D areas and perimeters was based on the Pratt algorithm (Pratt et al., IEEE Trans. Biomed. Eng., 38, 306-309 (1991). Bone structural variables and nomenclature were used according to Bouxsein et al. (J. Bone Miner. Res., 25:1468-1486 (2010)).

RAW 264.7 cells = assay: RT-qPCR mRNA expression; assay type: cell-based, mouse; details: RAW 264.7 induced with RANKL and MCSF, co-treatment with SFN
Method: Total RNA was extracted using the SV Total RNA Isolation kit (Promega) following the supplier's instructions. cDNA was synthesized from about 0.5 μg RNA using the First Strand cDNA Synthesis kit (Roche) as described by the supplier. The resulting cDNAs were subjected to quantitative PCR amplification with a real-time cycler using the QUANTITECT™ SYBR® Green PCR Kit (Qiagen, Hilden, Germany) for the genes Alpl, Fas, Lox, Tet1, Tet2, and TAQMAN® Gene expression Master Mix (Applied Biosystems, Foster City, Calif., USA) for measuring Runx2, Bglap2, Colla1, Tnfsf11, and 18S rRNA expression (for primers, see Table 1). SYBR-Green RT-qPCR was started with an initial denaturation step at 95° C. for 10 minutes and then continued with 45 cycles consisting of 30 seconds denaturation at 95° C., 30 seconds annealing at primer-specific temperatures, and extension at 72° C. For measurement of the TAQMAN® assays, an initial denaturation at 95° C. for 10 minutes was applied, followed by 45 cycles alternating 60 seconds at 60° C. and 15 seconds at 95° C. All RT-qPCR assays were performed in triplicate, and expression was evaluated using the comparative quantification method (Pfaffl, Nucleic Acids Res., 29:e45 (2001)).

MC3T3-E1 cells = assay: ECM mineralization by Alizarin Red stain; assay type: cell-based, mouse; details: for matrix mineralization (Alizarin Red): MC3T3-E1, as early as 14 days of treatment
Method: Differentiation of MC3T3-E1 cells was induced with 50 μg/mL ascorbic acid (Sigma-Aldrich) and 5 mM β-glycerophosphate (Sigma-Aldrich) in medium containing 5% FBS. RAW 264.7 cells were cultured in Dulbecco's modified Eagle's medium (DMEM, Invitrogen, Carlsbad, Calif., USA) supplemented with 10% fetal bovine serum (Hyclone) and 2 mM glutamine (Gibco, Carlsbad, Calif., USA). Cells were seeded in culture dishes at a density of 20,000 cells/cm^2 and cultured overnight unless stated otherwise. Before cells were treated with compounds, the culture medium was changed.
Calvariae from 2 to 3-day-old and from 7-week old C57BL/6 mice were dissected aseptically. The calvarial bone explants were cultured in 48-well plates in α-MEM (Biochrom) containing 10% FCS (Biochrom), 50 μg/mL ascorbic acid (Sigma-Aldrich), 5 mM β-glycerophosphate (Sigma-Aldrich), and 10 μg/mL gentamicin (Sigma-Aldrich). The day after dissection, medium was changed, and a part of the explants was treated with 3 μM L- or DL-SFN for 12 days. Thereafter, one part of the calvariae were fixed for 1 hour in 4% para-formaldehyde (PFA), and mineralization was measured by Alizarin Red S stain (Sigma-Aldrich). For this purpose, Alizarin Red S dye was extracted using 10% cetylpyridinium chloride (CPC) in 10 mM sodiumphosphate (pH=7.0) for 45 minutes at room temperature. Alizarin Red S absorbance was measured at 562 nm in a multi-plate reader (Tecan, Maennedorf, Switzerland) and normalized to total protein amount measured by bicinchoninic acid assay (Thermo Fisher Scientific, Waltham, Mass., USA). From the other part of the calvariae, total RNA was extracted.

Compound | osteogenic differentiation of MC3T3 cells (MC3T3 cells) | area resorbed by primary mouse osteoclast cultures on ivory discs [1] | bone loss due to estrogen-deficiency [2] | expression of classical osteoclastic markers (Acp5, Clcr, Ctsk) (RAW 264.7 cells) | potency in stimulating matrix mineralization relative to DMSO (MC3T3-E1 cells; MC3T3-E1) | matrix mineralization (Alizarin Red) (MC3T3-E1 cells)
CCCc1cc(C)[nH]c(=O)c1CNC(=O)c1cc(-c2ccc(N3CCN(C(C)C)CC3)nc2)cc2c1cnn2C(C)C [UNC1999, N-[(6-methyl-2-oxo-4-propyl-1,2-dihydropyridin-3-yl)methyl]-1-(propan-2-yl)-6-{6-[4-(propan-2-yl)piperazin-1-yl]pyridin-3-yl}-1H-indazole-4-carboxamide] | promotes | – | – | – | – | –
1-isothiocyanato-5-methanesulfinylpentane [SFN] | – | significantly reduced | reduced bone loss | no appreciable changes | at least four orders of magnitude more potent than DMSO | increased matrix mineralization
C[S+](C)[O-] [DMSO, methanesulfinyl methane] | – | – | – | – | – | increased matrix mineralization
